Source: ChEMBL document CHEMBL1138129, “A novel nicotinic acetylcholine receptor antagonist radioligand for PET studies” (Bioorg Med Chem Lett, 2006)

Assays:
[1] = molecular target: Neuronal acetylcholine receptor; alpha4/beta2 (Homo sapiens, UniProt P17787+P43681); assay: Displacement of [3H]epibatidine from alpha-4-beta-2 ACHR; type: protein-complex assay
[2] = Protein binding in baboon plasma; type: ADME, Papio; details: read-out: PPB (converted)
[3] = Lipophilicity as measured by Log P; type: physicochemical; details: octanol/water
[4] = Half life of the compound; type: ADME

Neuronal acetylcholine receptor; alpha4/beta2, sequence (P17787 whole entry): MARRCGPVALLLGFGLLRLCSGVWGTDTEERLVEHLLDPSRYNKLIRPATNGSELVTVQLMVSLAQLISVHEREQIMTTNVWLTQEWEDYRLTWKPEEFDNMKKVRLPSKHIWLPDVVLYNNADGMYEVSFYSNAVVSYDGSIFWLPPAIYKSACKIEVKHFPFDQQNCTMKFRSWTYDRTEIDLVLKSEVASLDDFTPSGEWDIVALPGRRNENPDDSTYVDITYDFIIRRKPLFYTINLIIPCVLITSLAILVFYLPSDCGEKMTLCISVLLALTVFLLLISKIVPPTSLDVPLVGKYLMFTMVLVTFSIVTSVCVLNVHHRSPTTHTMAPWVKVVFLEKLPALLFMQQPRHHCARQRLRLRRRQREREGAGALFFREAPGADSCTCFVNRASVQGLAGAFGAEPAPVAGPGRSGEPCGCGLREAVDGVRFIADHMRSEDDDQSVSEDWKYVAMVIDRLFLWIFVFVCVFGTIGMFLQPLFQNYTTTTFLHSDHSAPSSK
Neuronal acetylcholine receptor; alpha4/beta2, sequence (P43681 whole entry): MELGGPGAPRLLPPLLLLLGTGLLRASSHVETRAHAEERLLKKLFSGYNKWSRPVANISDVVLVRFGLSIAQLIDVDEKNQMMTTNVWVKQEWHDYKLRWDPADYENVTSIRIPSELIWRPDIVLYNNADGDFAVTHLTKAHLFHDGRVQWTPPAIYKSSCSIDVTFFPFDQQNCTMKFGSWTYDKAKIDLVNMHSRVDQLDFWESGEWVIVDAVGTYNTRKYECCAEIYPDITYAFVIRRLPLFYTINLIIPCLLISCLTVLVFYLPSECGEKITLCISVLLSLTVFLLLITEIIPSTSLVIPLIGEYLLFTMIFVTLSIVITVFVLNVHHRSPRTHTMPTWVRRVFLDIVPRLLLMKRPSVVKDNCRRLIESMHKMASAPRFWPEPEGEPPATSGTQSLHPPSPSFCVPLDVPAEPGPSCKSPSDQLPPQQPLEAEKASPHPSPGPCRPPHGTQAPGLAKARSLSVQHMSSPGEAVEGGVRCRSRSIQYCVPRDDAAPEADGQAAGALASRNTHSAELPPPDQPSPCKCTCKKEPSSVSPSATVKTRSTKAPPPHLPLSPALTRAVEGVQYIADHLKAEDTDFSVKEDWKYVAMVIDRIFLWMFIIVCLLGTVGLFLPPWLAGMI

Compound: [11CH3]N1C2CCC1C(c1cncc(I)c1)C2 (centres undefined)
- Ki [1]: 0.029 µM
- fraction unbound [2]: 0.6
- logP [3]: 1.09
- half-life [4]: 1 h
